Test results published in PubChem BioAssay (NCI).
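Test compounds were applied to cells in 96-well plates for 48 hours at 5 doses. GI50: concentration for 50% inhibition of growth. TGI denotes the concentration required for complete inhibition of growth.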

Assays:
Experiment in all cases: NCI tumour cell line growth inhibition, 48 h
786-0 renal = system: 786-0 renal
A549 NSCLC = system: A549 NSCLC
ACHN renal = system: ACHN renal
BT-549 breast = system: BT-549 breast
CAKI-1 renal = system: CAKI-1 renal
CCRF-CEM leukemia = system: CCRF-CEM leukemia
COLO 205 colon = system: COLO 205 colon
DU-145 prostate = system: DU-145 prostate
EKVX NSCLC = system: EKVX NSCLC
HCC-2998 colon = system: HCC-2998 colon
HCT-116 colon = system: HCT-116 colon
HCT-15 colon = system: HCT-15 colon
HL-60(TB) leukemia = system: HL-60(TB) leukemia
HOP-62 NSCLC = system: HOP-62 NSCLC
HOP-92 NSCLC = system: HOP-92 NSCLC
HS 578T breast = system: HS 578T breast
HT29 colon = system: HT29 colon
IGROV1 ovarian = system: IGROV1 ovarian
K-562 leukemia = system: K-562 leukemia
KM12 colon = system: KM12 colon
LOX IMVI melanoma = system: LOX IMVI melanoma
M14 melanoma = system: M14 melanoma
MALME-3M melanoma = system: MALME-3M melanoma
MCF7 breast = system: MCF7 breast
MDA-MB-231 breast = system: MDA-MB-231 breast
MDA-MB-435 = system: MDA-MB-435
MOLT-4 leukemia = system: MOLT-4 leukemia
NCI-H226 lung = system: NCI-H226 lung
NCI-H23 lung = system: NCI-H23 lung
NCI-H460 lung = system: NCI-H460 lung
NCI-H522 lung = system: NCI-H522 lung
NCI/ADR-RES ovarian = system: NCI/ADR-RES ovarian
OVCAR-3 ovarian = system: OVCAR-3 ovarian
OVCAR-4 ovarian = system: OVCAR-4 ovarian
OVCAR-5 ovarian = system: OVCAR-5 ovarian
OVCAR-8 ovarian = system: OVCAR-8 ovarian
PC-3 prostate = system: PC-3 prostate
RPMI-8226 leukemia = system: RPMI-8226 leukemia
RXF 393 renal = system: RXF 393 renal
SF-268 CNS = system: SF-268 CNS
SF-295 CNS = system: SF-295 CNS
SF-539 CNS = system: SF-539 CNS
SK-MEL-2 melanoma = system: SK-MEL-2 melanoma
SK-MEL-28 melanoma = system: SK-MEL-28 melanoma
SK-MEL-5 melanoma = system: SK-MEL-5 melanoma
SK-OV-3 ovarian = system: SK-OV-3 ovarian
SN12C renal = system: SN12C renal
SNB-19 CNS = system: SNB-19 CNS
SNB-75 CNS = system: SNB-75 CNS
SR leukemia = system: SR leukemia
SW-620 colon = system: SW-620 colon
T-47D breast = system: T-47D breast
TK-10 renal = system: TK-10 renal
U251 CNS = system: U251 CNS
UACC-257 melanoma = system: UACC-257 melanoma
UACC-62 melanoma = system: UACC-62 melanoma
UO-31 renal = system: UO-31 renal

Cn1ccc2c3c(=O)cc[nH]c3ccc21
GI50 (786-0 renal): > 100 µM
TGI (786-0 renal): > 100 µM
GI50 (A549 NSCLC): > 100 µM
TGI (A549 NSCLC): > 100 µM
GI50 (ACHN renal): > 100 µM
TGI (ACHN renal): > 100 µM
GI50 (BT-549 breast): > 100 µM
TGI (BT-549 breast): > 100 µM
GI50 (CAKI-1 renal): 32.4 µM
TGI (CAKI-1 renal): 95.1 µM
GI50 (CCRF-CEM leukemia): > 100 µM
TGI (CCRF-CEM leukemia): > 100 µM
GI50 (COLO 205 colon): > 100 µM
TGI (COLO 205 colon): > 100 µM
GI50 (DU-145 prostate): > 100 µM
TGI (DU-145 prostate): > 100 µM
GI50 (EKVX NSCLC): > 100 µM
TGI (EKVX NSCLC): > 100 µM
GI50 (HCC-2998 colon): > 100 µM
TGI (HCC-2998 colon): > 100 µM
GI50 (HCT-116 colon): > 100 µM
TGI (HCT-116 colon): > 100 µM
GI50 (HCT-15 colon): > 100 µM
TGI (HCT-15 colon): > 100 µM
GI50 (HL-60(TB) leukemia): > 100 µM
TGI (HL-60(TB) leukemia): > 100 µM
GI50 (HOP-62 NSCLC): > 100 µM
TGI (HOP-62 NSCLC): > 100 µM
GI50 (HOP-92 NSCLC): 69.2 µM
TGI (HOP-92 NSCLC): > 100 µM
GI50 (HS 578T breast): 20.2 µM
TGI (HS 578T breast): > 100 µM
GI50 (HT29 colon): > 100 µM
TGI (HT29 colon): > 100 µM
GI50 (IGROV1 ovarian): > 100 µM
TGI (IGROV1 ovarian): > 100 µM
GI50 (K-562 leukemia): > 100 µM
TGI (K-562 leukemia): > 100 µM
GI50 (KM12 colon): > 100 µM
TGI (KM12 colon): > 100 µM
GI50 (LOX IMVI melanoma): > 100 µM
TGI (LOX IMVI melanoma): > 100 µM
GI50 (M14 melanoma): > 100 µM
TGI (M14 melanoma): > 100 µM
GI50 (MALME-3M melanoma): > 100 µM
TGI (MALME-3M melanoma): > 100 µM
GI50 (MCF7 breast): > 100 µM
TGI (MCF7 breast): > 100 µM
GI50 (MDA-MB-231 breast): > 100 µM
TGI (MDA-MB-231 breast): > 100 µM
GI50 (MDA-MB-435): > 100 µM
TGI (MDA-MB-435): > 100 µM
GI50 (MOLT-4 leukemia): > 100 µM
TGI (MOLT-4 leukemia): > 100 µM
GI50 (NCI-H226 lung): > 100 µM
TGI (NCI-H226 lung): > 100 µM
GI50 (NCI-H23 lung): > 100 µM
TGI (NCI-H23 lung): > 100 µM
GI50 (NCI-H460 lung): > 100 µM
TGI (NCI-H460 lung): > 100 µM
GI50 (NCI-H522 lung): > 100 µM
TGI (NCI-H522 lung): > 100 µM
GI50 (NCI/ADR-RES ovarian): > 100 µM
TGI (NCI/ADR-RES ovarian): > 100 µM
GI50 (OVCAR-3 ovarian): > 100 µM
TGI (OVCAR-3 ovarian): > 100 µM
GI50 (OVCAR-4 ovarian): > 100 µM
TGI (OVCAR-4 ovarian): > 100 µM
GI50 (OVCAR-5 ovarian): > 100 µM
TGI (OVCAR-5 ovarian): > 100 µM
GI50 (OVCAR-8 ovarian): > 100 µM
TGI (OVCAR-8 ovarian): > 100 µM
GI50 (PC-3 prostate): > 100 µM
TGI (PC-3 prostate): > 100 µM
GI50 (RPMI-8226 leukemia): > 100 µM
TGI (RPMI-8226 leukemia): > 100 µM
GI50 (RXF 393 renal): > 100 µM
TGI (RXF 393 renal): > 100 µM
GI50 (SF-268 CNS): > 100 µM
TGI (SF-268 CNS): > 100 µM
GI50 (SF-295 CNS): > 100 µM
TGI (SF-295 CNS): > 100 µM
GI50 (SF-539 CNS): > 100 µM
TGI (SF-539 CNS): > 100 µM
GI50 (SK-MEL-2 melanoma): > 100 µM
TGI (SK-MEL-2 melanoma): > 100 µM
GI50 (SK-MEL-28 melanoma): 12.7 µM
TGI (SK-MEL-28 melanoma): > 100 µM
GI50 (SK-MEL-5 melanoma): > 100 µM
TGI (SK-MEL-5 melanoma): > 100 µM
GI50 (SK-OV-3 ovarian): 80.1 µM
TGI (SK-OV-3 ovarian): > 100 µM
GI50 (SN12C renal): > 100 µM
TGI (SN12C renal): > 100 µM
GI50 (SNB-19 CNS): > 100 µM
TGI (SNB-19 CNS): > 100 µM
GI50 (SNB-75 CNS): > 100 µM
TGI (SNB-75 CNS): > 100 µM
GI50 (SR leukemia): > 100 µM
TGI (SR leukemia): > 100 µM
GI50 (SW-620 colon): > 100 µM
TGI (SW-620 colon): > 100 µM
GI50 (T-47D breast): > 100 µM
TGI (T-47D breast): > 100 µM
GI50 (TK-10 renal): > 100 µM
TGI (TK-10 renal): > 100 µM
GI50 (U251 CNS): > 100 µM
TGI (U251 CNS): > 100 µM
GI50 (UACC-257 melanoma): > 100 µM
TGI (UACC-257 melanoma): > 100 µM
GI50 (UACC-62 melanoma): > 100 µM
TGI (UACC-62 melanoma): > 100 µM
GI50 (UO-31 renal): > 100 µM
TGI (UO-31 renal): > 100 µM
